Reference: US20250290117A1, “MOLECULAR PHENOTYPIC ANTIMICROBIAL SUSCEPTIBILITY TESTING” (priority 2024, published 2025)

Key:
M. morganii = experiment: Molecular phenotypic antimicrobial susceptibility test, specimen with two detected pathogens incubated together without isolation; assay type: cell-based, Morganella morganii; conditions: M. morganii in specimen with two detected pathogens (E. coli and M. morganii) incubated together; for Ct of Sensitive Breakpoint: Ct of controls (average) 19.99; for Molecular Antimicrobial Susceptibility Result: at sensitive breakpoint
Description: (§1) Detection of Molecular Phenotypic Antimicrobial Susceptibility. Disclosed herein are the methods for the detection of phenotypic antimicrobial susceptibility via molecular methods. The present invention describes how a specimen 100 with a known microbial load is incubated and then exposed to a panel of antimicrobial agents to determine sensitivity (prevention of growth) or resistance (allowance of growth) to the specific antimicrobial agents tested utilizing molecular methods.
(§2) Sample Collection. Specimens 100 are collected from patients using sterile collection processes that are employed in routine clinical care. Specimens are transported to the testing facility in boric acid preservative. Specimens 100 are subsequently divided into a first sample 104 and a second sample 108.
(§3) Preparation of the Specimens for Testing. The specimens 100 are put through a pathogen identification process using PCR technology (e.g., using the first sample 104). The process for pathogen isolation includes steps of harvesting the pathogen (e.g., via centrifugation), isolating pathogen DNA via a DNA isolation and/or purification kit, and performing PCR on the pathogen DNA via PCR components (e.g., primers, enzymes, buffers) as would be known to the skilled artisan. Simultaneously, an additional aliquot of the same specimen (e.g., the second sample 108) is placed with liquid culture media and incubated for 4-6 hours. This aliquot is used for antimicrobial susceptibility testing if indicated based on the pathogen detection results. After pathogen identification is completed and if more than 10,000 cells/mL of bacteria (e.g., eligible bacteria) are detected in the source specimen, the second sample 108 then enters the antimicrobial susceptibility phase of testing. Specimens 100 with lower pathogen loads could also be utilized in the antibiotic susceptibility phase of testing with or without a longer incubation period.
(§4) Preparation of Antimicrobial Susceptibility Testing Plates. Antimicrobial solutions are prepared at known concentrations. The specific antimicrobials and their concentrations are selected based on the pathogen of interest and the described antimicrobial resistance breakpoints for that specimen pathogen and antimicrobial combination. These antimicrobials have been selected based on those commonly utilized by healthcare providers in routine clinical care for the specific type of suspected infection. The number and types of antimicrobials utilized can be customized based on the infection source, pathogen detected, patient-specific factors such as allergies or other health conditions (e.g., chronic kidney disease or concurrent medication use), or healthcare provider preferences such as antimicrobial availability or cost.
(§5) The antimicrobial solutions are prepared in liquid culture media (such as Muller Hinton Broth) to achieve the desired antimicrobial concentration and are then stored at −80° C. until use. For a given specimen, each antimicrobial is tested at a single or multiple antimicrobial concentration(s) which is its established breakpoints for sensitivity. The antimicrobial solutions are prepared and plated out for each specific pathogen. This allows ease of use on the day of testing after defrosting the plate 112. Table 1, which illustrates the results of molecular phenotypic antimicrobial susceptibility testing when more than one organism is present in the source specimen, provides an example of an antimicrobial plate 112 prepared for this purpose. Of note, control wells containing only culture media are present on all plates 112. This allows for evaluation of pathogen load when no antimicrobial is present.
(§6) Specimen Exposure to Antimicrobial Agents. The 1 mL aliquot of the specimen 100 previously mixed with culture media and incubated is obtained. Using optical density measurements as a guide, the specimen 100 is diluted to 0.5 McFarland. […]

E. coli = experiment: Molecular phenotypic antimicrobial susceptibility test with direct PCR (no extraction DNA purification step); assay type: cell-based, Escherichia coli
Description: as §1, §2, §3, §4, §5, §6

Acinetobacter baumannii = experiment: Traditional culture-based antimicrobial susceptibility test; assay type: cell-based
Excerpt: Table 2 illustrates the results of an example antimicrobial agent susceptibility test of the current application versus a traditional culture-based antimicrobial agent susceptibility test for […], in accordance with one or more embodiments of the disclosure. This specimen underwent extraction and/or DNA purification prior to PCR. As in Table 1, the results of the test of the current application are similar to the results from the traditional test.
Result Reporting to Healthcare Providers. The results from the antimicrobial exposure are reported to the ordering healthcare provider. This information can be utilized by the healthcare provider when selecting an antimicrobial regimen for their individual patient based on these individual specimen results and patient specific factors. […] The current standard of care for antimicrobial susceptibility testing involves the growth, isolation, and exposure of pathogens to antimicrobials. This traditional culture and sensitivity process can take multiple days to obtain results, limiting the ability of healthcare providers to receive timely results to make actionable changes in patient care or management. Healthcare providers desire a method to obtain antimicrobial susceptibility results with quicker turn-around-time. This application discloses a molecular-based phenotypic antimicrobial susceptibility method which involves pathogen exposure to a panel of antimicrobial agents at their specified minimum inhibitory concentration breakpoints for sensitivity. This method allows for more timely antimicrobial susceptibility results.

[1] = E. coli #1 - WDCM 00090 - 6.2×E3, specimen with <10,000 cells/mL, direct PCR after 16 hours of incubation
[2] = E. coli #1 - WDCM 00090 - 6.2×E3, specimen with <10,000 cells/mL, direct PCR after 16 hours of incubation, Ct at control 13.787
[3] = E. coli #2 - WDCM 00090 - 6.2×E3, specimen with <10,000 cells/mL, direct PCR after 16 hours of incubation
[4] = E. coli #2 - WDCM 00090 - 6.2×E3, specimen with <10,000 cells/mL, direct PCR after 16 hours of incubation, Ct at control 13.46
[5] = E. coli isolate JJ1887, direct PCR, Ct at control (average) 12.832
[6] = E. coli isolate JJ1887, direct PCR, at sensitive breakpoint

Row | SMILES | Ct of Sensitive Breakpoint (M. morganii) | Molecular Antimicrobial Susceptibility Result (M. morganii) | Molecular Antimicrobial Susceptibility Result (E. coli; [1]) | Ct at Sensitive Breakpoint (E. coli; [2]) | Molecular Antimicrobial Susceptibility Result (E. coli; [3]) | Ct at Sensitive Breakpoint (E. coli; [4]) | Ct at Sensitive Breakpoint (E. coli; [5]) | Molecular Antimicrobial Susceptibility Result (E. coli; [6]) | Traditional Culture Result (Acinetobacter baumannii; A. baumannii isolate 1) | Traditional Culture Result (Acinetobacter baumannii; A. baumannii isolate 2) | Traditional Culture Result (Acinetobacter baumannii; A. baumannii isolate 3) | Traditional Culture Result (Acinetobacter baumannii; A. baumannii isolate 4) | Traditional Culture Result (Acinetobacter baumannii; A. baumannii isolate 5)
1 | CC1(C)S[C@@H]2[C@H](NC(=O)[C@H](N)c3ccccc3)C(=O)N2[C@H]1C(=O)O [Ampicillin] | 20.73 | Resistant | Sensitive (Antimicrobial wells with pathogen load detected below the control wells (typically >2 cycle thresholds later) may be reported as Sensitive) | 25.93 | Sensitive (Antimicrobial wells with pathogen load detected below the control wells (typically >2 cycle thresholds later) may be reported as Sensitive) | 26.22 | 12.265 | Resistant | – | – | – | – | –
2 | Cc1nnc(SCC2=C(C(=O)O)N3C(=O)[C@@H](NC(=O)Cn4cnnn4)[C@H]3SC2)s1 [Cefazolin] | 21.60 | Resistant | Sensitive (Antimicrobial wells with pathogen load detected below the control wells (typically >2 cycle thresholds later) may be reported as Sensitive) | 25.72 | Sensitive (Antimicrobial wells with pathogen load detected below the control wells (typically >2 cycle thresholds later) may be reported as Sensitive) | 26.56 | 12.804 | Resistant | – | – | – | – | –
3 | CO/N=C(\C(=O)N[C@@H]1C(=O)N2C(C(=O)[O-])=C(C[N+]3(C)CCCC3)CS[C@H]12)c1csc(N)n1 [Cefepime] | 29.72 | Sensitive (Antimicrobial wells with pathogen load detected below the control wells (typically >2 cycle thresholds later) may be reported as Sensitive) | – | – | – | – | 12.796 | Resistant | Resistant | Resistant | Sensitive | Resistant | Resistant
4 | CO[C@@]1(NC(=O)Cc2cccs2)C(=O)N2C(C(=O)O)=C(COC(N)=O)CS[C@@H]21 [Cefoxitin] | 23.01 | Sensitive (Antimicrobial wells with pathogen load detected below the control wells (typically >2 cycle thresholds later) may be reported as Sensitive) | – | – | – | – | – | – | – | – | – | – | –
5 | CO/N=C(\C(=O)N[C@@H]1C(=O)N2C(C(=O)O)=C(CSc3nc(=O)c(=O)[nH]n3C)CS[C@H]12)c1csc(N)n1 [Ceftriaxone] | 30.03 | Sensitive (Antimicrobial wells with pathogen load detected below the control wells (typically >2 cycle thresholds later) may be reported as Sensitive) | Sensitive (Antimicrobial wells with pathogen load detected below the control wells (typically >2 cycle thresholds later) may be reported as Sensitive) | 26.31 | Sensitive (Antimicrobial wells with pathogen load detected below the control wells (typically >2 cycle thresholds later) may be reported as Sensitive) | 27.18 | 12.353 | Resistant | Resistant | Resistant | Resistant | Resistant | Resistant
6 | O=C(O)c1cn(C2CC2)c2cc(N3CCNCC3)c(F)cc2c1=O [Ciprofloxacin] | 34.71 | Sensitive (Antimicrobial wells with pathogen load detected below the control wells (typically >2 cycle thresholds later) may be reported as Sensitive) | – | – | – | – | 12.215 | Resistant | Resistant | Resistant | Resistant | Resistant | Resistant
7 | C[C@@H]1O[C@@H]1P(=O)(O)O [Fosfomycin] | 33.43 | Sensitive (Antimicrobial wells with pathogen load detected below the control wells (typically >2 cycle thresholds later) may be reported as Sensitive) | Sensitive (Antimicrobial wells with pathogen load detected below the control wells (typically >2 cycle thresholds later) may be reported as Sensitive) | 27.59 | Sensitive (Antimicrobial wells with pathogen load detected below the control wells (typically >2 cycle thresholds later) may be reported as Sensitive) | 28.41 | – | – | – | – | – | – | –
8 | C[C@H]1COc2c(N3CCN(C)CC3)c(F)cc3c(=O)c(C(=O)O)cn1c23 [Levofloxacin] | 29.62 | Sensitive (Antimicrobial wells with pathogen load detected below the control wells (typically >2 cycle thresholds later) may be reported as Sensitive) | – | – | – | – | 12.562 | Resistant | – | – | – | – | –
9 | O=C1CN(/N=C/c2ccc([N+](=O)[O-])o2)C(=O)N1 [Nitrofurantoin] | 33.37 | Sensitive (Antimicrobial wells with pathogen load detected below the control wells (typically >2 cycle thresholds later) may be reported as Sensitive) | Sensitive (Antimicrobial wells with pathogen load detected below the control wells (typically >2 cycle thresholds later) may be reported as Sensitive) | 27.90 | Sensitive (Antimicrobial wells with pathogen load detected below the control wells (typically >2 cycle thresholds later) may be reported as Sensitive) | 28.97 | 26.305 | Sensitive (Antimicrobial wells with pathogen load detected below the control wells (typically >2 cycle thresholds later) may be reported as Sensitive) | – | – | – | – | –
10 | CN(C)[C@@H]1C(O)=C(C(N)=O)C(=O)[C@@]2(O)C(O)=C3C(=O)c4c(O)cccc4[C@@](C)(O)[C@H]3C[C@@H]12 [Tetracycline] | 31.64 | Sensitive (Antimicrobial wells with pathogen load detected below the control wells (typically >2 cycle thresholds later) may be reported as Sensitive) | – | – | – | – | – | – | – | – | – | – | –
